Data from patent US11944661B2, “Pharmaceutical composition containing extract of leaves of Vaccinium bracteatum Thunb. for prevention or treatment of stress disease and depression” (JEONNAM BIOINDUSTRY FOUNDATION, priority 2017, dated 2024).
Where a name gives a salt, the structure may show the parent alone. Read-outs that look alike come from different tables or passages of the source.

Tests used:
SH-SY5Y cells = experiment: Cytotoxicity of the pharmacological inhibitors alone, 24-hour incubation
Procedure: An experiment was carried out to find out the working signaling pathway responsible for the neuroprotective activity of the Vaccinium bracteatum Thunb. leaf extracts against corticosterone-induced neuronal damage. In this experiment, SH-SY5Y cells were pretreated for 1 hour with wortmanin, rapamycin, H89, and PD98059, which are respective pharmacological inhibitors of the PI3K (phosphoinositide 3-kinase), mTOR, PKA (protein kinase A), and MAPK/ERK kinase pathways and then incubated for 2 hours with the hot-water extracts of Vaccinium bracteatum Thunb. leaves (3 μg/ml). Thereafter, 24 hours of incubation with corticosterone (1 mM) was followed by measuring cell viability through MTT assay.
For use in the experiment, the inhibitors alone were assayed for cytotoxicity.

male ICR mice = experiment: Forced swimming test (FST) in normal mice after 1 or 6 days of oral administration; type: in vivo; settings: comparative group, dose not given
Procedure: For use in assaying an antidepressant effect of the Vaccinium bracteatum Thunb. leaf extracts, male ICR mice, 6 weeks of age, were purchased from […], Korea. The animals were acclimated to a certain condition in an animal breeding room (temperature: 22±2° C., humidity: 50±5%, contrast: 12-hour light/12-hour dark cycle) for one week before use. Male ICR mice were orally administered the Vaccinium bracteatum Thunb. leaf extract the present invention while escitalopram oxalate was used as an antidepressant for a comparative group. Oral administration was conducted for 1 or 6 days according to the experiment. In a forced swimming test (FST), which is a pre-swim test on the day before the main test (post-swim), tap water of around 25° C. was poured into a cylindrical water tank (about 20 cm in diameter, 40 cm in height) to the height of 15 cm from the bottom, after which the mice were put thereinto and forced to swim for 15 minutes. Then, the mice were withdrawn from the water, wiped with a dry towel, and returned to the breeding box. After 1 or 6 days of drug administration, the main test (post-swim) was performed and video was taken with forced swimming for 6 minutes with the mice in the cylinder. In the recorded images for the five minutes exclusive of the first one minute, the animal behavior was classified into three types for analysis: the animals were floating in the water, showing a slight movement, with only a part of the upper body including the face exposed on the water face (immobility behavior); the animals were swimming around the cylinder in the horizontal direction while splashing the water with their forepaws and rear paws (swimming behavior); and the animals were making the fierce movement of pulling the paws out of the water, scrapping the wall (climbing behavior). Times for the three movements were measured.

corticosterone = experiment: Serum stress hormone corticosterone level (ELISA) in normal mice after six days of administration; type: in vivo; settings: comparative group, dose not given
Procedure: After six days of drug administration to mice in a normal state, effects on the level of the stress hormone corticosterone in sera of the mice were measured using the Abnova ELISA kit according to the manufacturer's instruction.

[1] = system: male ICR mice subjected to chronic restraint stress (CRS); experiment: Forced swimming test (FST) in chronic restraint stress (CRS) mice; type: in vivo; settings: three weeks of CRS; 10 mg/kg p.o
Procedure: In a forced swimming test (FST), which is a pre-swim test on the day before the main test (post-swim), tap water of around 25° C. was poured into a cylindrical water tank (about 20 cm in diameter, 40 cm in height) to the height of 15 cm from the bottom, after which the mice were put thereinto and forced to swim for 15 minutes. Then, the mice were withdrawn from the water, wiped with a dry towel, and returned to the breeding box. After 1 or 6 days of drug administration, the main test (post-swim) was performed and video was taken with forced swimming for 6 minutes with the mice in the cylinder. In the recorded images for the five minutes exclusive of the first one minute, the animal behavior was classified into three types for analysis: the animals were floating in the water, showing a slight movement, with only a part of the upper body including the face exposed on the water face (immobility behavior); the animals were swimming around the cylinder in the horizontal direction while splashing the water with their forepaws and rear paws (swimming behavior); and the animals were making the fierce movement of pulling the paws out of the water, scrapping the wall (climbing behavior). Times for the three movements were measured. Male ICR mice were purchased and subjected to chronic restraint stress (CRS). In this regard, a constant restraint stress was given by immobilizing the mice for 6 hours per day (a.m. 11 to p.m.5) in an acrylic box 20 cm in height and 7 cm in diameter for three weeks. The hot-water extracts of Vaccinium bracteatum Thunb. leaves were orally administered at each dose to the mice daily 30 min before the stress was given at the same time. For the control, the same volume of saline was administered. As a comparative group, escitalopram oxalate, which is an antidepressant, was orally administered. Animal behavior tests were performed the next day after 3 weeks of restraint stress stimulation. The open field test (OFT) was followed by the forced swimming test (FST). […]

[2] = system: male ICR mice subjected to chronic restraint stress (CRS); experiment: Open field test (OFT) in chronic restraint stress (CRS) mice; type: in vivo; settings: three weeks of CRS; 5 minutes; positive control
Procedure: Male ICR mice were purchased and subjected to chronic restraint stress (CRS). In this regard, a constant restraint stress was given by immobilizing the mice for 6 hours per day (a.m. 11 to p.m.5) in an acrylic box 20 cm in height and 7 cm in diameter for three weeks. The hot-water extracts of Vaccinium bracteatum Thunb. leaves were orally administered at each dose to the mice daily 30 min before the stress was given at the same time. For the control, the same volume of saline was administered. As a comparative group, escitalopram oxalate, which is an antidepressant, was orally administered. Animal behavior tests were performed the next day after 3 weeks of restraint stress stimulation. The open field test (OFT) was followed by the forced swimming test (FST). After the FST evaluation, whole blood was collected from the mice which were then autopsied to excise the hippocampus and prefrontal cortex. These brain tissues were immediately stored at −70° C. until use in experiments. The open field test (OFT) is an experimental test used to assay locomotor activity levels of animals to determine the anti-anxiety and anti-depressive effects of drugs. An OFT box is an arena having the dimensions of 60 cm diameter×20 cm height with the bottom surface divided into 25 cells. […] In the OFT box, the number of cells which the animal voluntarily crossed for 5 minutes was counted. […]

With O=S(=O)(NCCNC/C=C/c1ccc(Br)cc1)c1cccc2cnccc12 [H89] the “cytotoxicity of inhibitor alone” value (SH-SY5Y cells) was “No cytotoxicity”.
For COc1cccc(-c2cc(=O)c3ccccc3o2)c1N [PD98059], the “cytotoxicity of inhibitor alone” value (SH-SY5Y cells) was “No cytotoxicity”.
In the case of CN(C)CCC[C@@]1(c2ccc(F)cc2)OCc2cc(C#N)ccc21 [escitalopram oxalate], the climbing time (male ICR mice; one-day administration) is reported as 12.43 ± 3.47 s, the immobility time (male ICR mice; one-day administration) is reported as 194.65 ± 11.55 s and the immobility time (male ICR mice; six-day administration) is reported as 169.65 ± 7.15 s. The swimming time (male ICR mice; six-day administration) was 128.16 ± 6.65 s, the stress hormone corticosterone in sera (corticosterone) was 765 ± 97.5 ng/mL and the climbing time [1] was 105.23 ± 15.37 s. For the same compound, the immobility time [1] was 154.74 ± 14.80 s, the swimming time [1] was 146.58 ± 14.84 s and the “number of crossing (locomotor activity)” value [2] was 182.73±5.60 crossings.
With CO[C@H]1C[C@@H]2CC[C@@H](C)[C@@](O)(O2)C(=O)C(=O)N2CCCC[C@H]2C(=O)O[C@H]([C@H](C)C[C@@H]2CC[C@@H](O)[C@H](OC)C2)CC(=O)[C@H](C)/C=C(\C)[C@@H](O)[C@@H](OC)C(=O)[C@H](C)C[C@H](C)/C=C/C=C/C=C/1C [rapamycin] the “cytotoxicity of inhibitor alone” value (SH-SY5Y cells) was “No cytotoxicity”.
In the case of COC[C@H]1OC(=O)c2coc3c2[C@@]1(C)C1=C(C3=O)[C@@H]2CCC(=O)[C@@]2(C)C[C@H]1OC(C)=O [wortmanin], the “cytotoxicity of inhibitor alone” value (SH-SY5Y cells; 24-hour incubation, inhibitor alone) is reported as “except for the PI3K inhibitor (wortmanin)”.
